Assay results taken from publication PMC8533176, “1,5-Benzodiazepin-2(3H)-ones: In Vitro Evaluation as Antiparkinsonian Agents” (Antioxidants, 2021).

How the values were obtained:
SH-SY5Y cells [1] = test: Neuroprotection against H2O2-induced oxidative stress, MTT; conditions: H2O2 250 µM 24 h; compounds 5-50 µM 24 h before; Figure 8
SH-SY5Y cells [2] = test: Intracellular ROS levels (DCFH2-DA); assay type: cell-based, human; conditions: 400 µM H2O2 4 h; compounds 24 h before
Procedure: Intracellular ROS levels were determined using dichlorofluorescein diacetate (DCFH2-DA) according to Wang et al.. DCFH2-DA is cleaved by intracellular esterases and is oxidized by ROS to form the fluorescent compound DCF, which represents the ROS level. Therefore, 3 × 10^3 SH-SY5Y cells were seeded in 96-well culture black clear bottom plates and after 24 h were treated with the test compound for an additional 24 h. Then, they were exposed to H2O2 for 4 h. After the incubation period, cells were washed twice with Hanks buffer and loaded with 20 µM DCFH2-DA (in FBS-free culture medium) for 40 min in dark at 37 °C in a CO2 incubator. At the end of the dye incubation period, they were washed twice with Hanks buffer to remove the extracellular DCFH2-DA. Fluorescence was measured with a Varioskan microplate reader at λex = 485 nm and λem = 535 nm wavelengths. Results are expressed as a percentage of the fluorescent increase compared with that of the control. All the experiments were performed at least three times in quadruplicate for each compound concentration.

SH-SY5Y cells [3] = test: Calcein-AM cell viability assay under H2O2; assay type: cell-based, human; conditions: H2O2 250 µM 24 h; 5, 10, 20, and 40 µM; Figure 12
Procedure: Calcein-AM is a fluorescence-based cell viability assay. Calcein-acetoxymethyl (AM) is a non-fluorescent compound that enters the cells where intracellular esterases hydrolyze the acetoxymethyl group. The fluorescent calcein is retained in the living cells, and it can be detected at λex = 495 and λem = 550 nm. After treatment, all the samples were washed with PBS and incubated with 2 μM calcein-AM for 30 min at 37 °C, 5% CO2, and protected from light. The fluorescence was measured in a Varioskan microplate reader (Thermo Fisher Scientific, Vantaa, Finland) with λex = 490 and λem = 520 nm filters. Cell viability was calculated from samples treated with 1% Triton X-100 for 30 min at 37 °C, 5% CO2.
Calcein-AM is a membrane permeant, not a fluorescent compound. Only live cells with intact plasma membrane have esterases that hydrolyze the compound into the green fluorescent dye calcein, which is retained in the cytoplasm. The fluorescent signal obtained is proportional to the number of living cells in the sample. […] Microscopy images in Figure S3 show the neuroprotection activity observed with Calcein-AM for derivative 18.

SH-SY5Y cells [4] = test: Resazurin cell viability assay under H2O2; assay type: cell-based, human; conditions: H2O2 250 µM 24 h; Figure 10B
SH-SY5Y cells [5] = test: Apoptosis and necrosis by flow cytometry (Annexin V-PE/7-AAD); conditions: 10 and 20 µM 24 h, then H2O2 1 mM 4 h
[6] = as above; conditions: human, SH-SY5Y cells
SH-SY5Y cells [7] = test: Neuroprotection in the MPP+ neurotoxicity-induced model, MTT; assay type: cell-based, human; conditions: MPP+ 700 µM 48 h; compounds 24 h before
[8] = test system: Caspase-3 activity in SH-SY5Y cells; test: Caspase-3 activity; assay type: cell-based, human; conditions: H2O2 500 µM 4 h; compound 24 h before
Procedure: Caspase-3 activity was measured using the Abcam fluorimetric kit (ab39383) according to the manufacturer’s instructions. Cells are washed with ice-cold PBS and lysed with lysis buffer. After compound and stressor treatments, SH-SY5Y cells were scraped off from p6 plates and collected in a 1.5 mL Eppendorf vial. The cell suspension was then centrifuged at 9000× g for 10 min at 4 °C. The supernatant was collected and stored at −80 °C for 24 h. Caspase 3 activity was measured as the ability of the cell extract to cleave the […] fluorochrome. The sample’s protein concentration was determined by the Bradford method. The reaction assay was performed by the addition of 50 μL of the cell lysate into the wells of a black 96-well culture plate followed by the addition of 50 μL of 2× reaction buffer containing DTT (10 mM) and caspase-3 substrate DEVD-AFC (final concentration 50 μM). Reagents were mixed by shaking the plate for 2 min at 300 rpm and then incubated at 37 °C for 2 h. Caspase-3 activity was measured as fluorescence intensity in a Varioskan microplate reader at λex = 400 nm and λem = 505 nm wavelengths. Relative fluorescence units (RFU)/mg of protein were calculated, and the fold increase in Caspase-3 activity was compared with that of the control.

SH-SY5Y cells [9] = test: Neuroprotection in the 6-OHD neurotoxicity-induced model, MTT; assay type: cell-based, human; conditions: 6-OHD 250 µM 48 h; compounds 24 h before
SH-SY5Y cells [10] = test: Intracellular GSH recovery (monochlorobimane); assay type: cell-based, human; conditions: H2O2 250 µM 24 h; 5, 10 and 20 µM
Procedure: For intracellular GSH determination studies, the method of Senft et al. was used. In summary, 3 × 10^3 SH-SY5Y cells were seeded in 96-well culture black clear bottom plates and after 24 h were treated with the test compound for an additional 24 h. Then, they were exposed to H2O2 for 24 h. After the incubation period, cells were loaded with 30 µM mClB and incubated at 37 °C for 30 min in a CO2 incubator as described by Sebastia et al.. At the end of the mClB incubation period, fluorescence was measured with a Varioskan microplate reader at λex = 405 nm and λem = 475. Results are expressed as the percentage of the fluorescence increase compared with that of the control. Experiments were performed four times in triplicate.

Compound: O=C1CC(c2ccccc2)=Nc2ccccc2N1 [Compound 18, 4-Phenyl-1H-1,5-benzodiazepin-2(3H)-one]
- Neuroprotection effect, cell viability (MTT) (SH-SY5Y cells [1]): significantly improved
- Intracellular ROS level reduction (SH-SY5Y cells [2]): ROS level reduction at all doses
- Neuroprotection, Calcein-AM cell counting (SH-SY5Y cells [3]): statistically significant neuroprotectant activity
- Neuroprotection, cell viability (resazurin) (SH-SY5Y cells [4]): significant protection against the oxidative stress insult
- Effect on apoptotic cell populations (SH-SY5Y cells [5]): reduced the number of late apoptotic cells
- viability at 24 h, 10 µM [6]: 26.6%
- viability at 24 h, 20 µM [6]: 28.1%
- Neuroprotection, cell viability (MTT), MPP+ model (SH-SY5Y cells [7]): small significant neuroprotection at 1 and 2 µM
- Caspase-3 activity reduction [8]: reduced the levels of activated caspase 3
- Neuroprotection, cell viability (MTT), 6-OHD model (SH-SY5Y cells [9]): significant neuroprotection
- intracellular GSH recovery (SH-SY5Y cells [10]): 18–20%
